Measurements taken from patent US20050266060A1, “Transdermal delivery system for treatment of cognitive disorders” (priority 2004, published 2005).

How the values were obtained:
[1] = tested on: cholinesterase; assay: inhibition of cholinesterase activity; format: biochemical
Excerpt: The phenserine compounds of the invention may be synthesized using processes known in the art. For example, U.S. Pat. Nos. 6,495,700, 5,409,948, 5,171,750, 5,378,723, and 5,998,460, and WO 03/082270 A1, all of which are hereby incorporated by reference in their entirety, describe the preparation of the phenserine compounds of the invention and enzyme inhibition assays that may be used to test compounds of the invention.

[2] = tested on: beta amyloid precursor protein; assay: production of beta amyloid precursor protein
[3] = clinical studies of oral phenserine compound; format: in vivo, human; details: oral dose of about 10 and/or 15 mg bid
Procedure: Clinical studies indicate that an oral dose of a phenserine compound of about 10 and/or 15 mg bid may produce a beneficial treatment for cognitive disorders, such as AD. […] Therefore, the dosage of a phenserine compound may be reduced when administered transdermally.

[4] = molecular target: T1, AChE (Rattus norvegicus, UniProt P37136); assay: time-dependent AChE inhibition in rats after phenserine administration
T1 sequence (P37136 32-614): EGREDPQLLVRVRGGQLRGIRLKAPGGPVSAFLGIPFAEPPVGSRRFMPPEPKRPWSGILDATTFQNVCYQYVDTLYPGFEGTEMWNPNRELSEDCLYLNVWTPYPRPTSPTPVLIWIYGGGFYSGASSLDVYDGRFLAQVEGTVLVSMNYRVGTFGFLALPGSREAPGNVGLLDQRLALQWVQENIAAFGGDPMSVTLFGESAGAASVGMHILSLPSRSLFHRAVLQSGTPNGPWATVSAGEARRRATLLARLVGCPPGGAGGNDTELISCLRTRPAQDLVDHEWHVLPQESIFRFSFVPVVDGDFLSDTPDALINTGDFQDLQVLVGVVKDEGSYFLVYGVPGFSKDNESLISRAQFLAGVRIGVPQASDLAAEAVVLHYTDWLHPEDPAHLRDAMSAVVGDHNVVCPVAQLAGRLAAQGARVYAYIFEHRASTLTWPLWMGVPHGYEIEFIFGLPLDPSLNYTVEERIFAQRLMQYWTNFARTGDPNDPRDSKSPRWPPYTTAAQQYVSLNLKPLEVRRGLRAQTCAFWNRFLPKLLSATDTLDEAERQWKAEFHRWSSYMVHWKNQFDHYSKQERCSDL
Procedure: (§1) To determine the time-dependent effects of phenserine on cholinergic function, AChE activity, brain and plasma drug levels and brain extracellular ACh concentrations were measured in rats before and after phenserine administration.

[5] = brain and plasma drug levels in rats after phenserine i.v. dosing
Procedure: as §1

[6] = in vitro penetration across human epidermis in glass diffusion cells; format: in vitro ADME
Procedure: Preparation of skin membranes: Human skin is obtained post mortem and may be stored at −20° C. until needed. When required the tissue is allowed to thaw at room temperature and the subcutaneous fat removed. Epidermal sheets are separated from full-thickness skin by immersing in water at 60° C. for 45 seconds and gently peeling away the epidermis. Alternatively, skin may be obtained from another source, such as a mouse or rat.
Absorption studies are performed in vitro using glass diffusion cells, having epidermal membranes mounted in Franz type diffusion cells. For example, Franz type diffusion cells having a cross-sectional area of 2.54 cm^2. The cells may be housed in a water bath to maintain a desired temperature. The upper surface of the membrane is exposed to donor solution and the under surface of the membrane is bathed by continuously stirred receptor fluid. Receptor fluid may be a phosphate buffered saline solution, or any physiological solution.
Membrane integrity may be assayed using methods well known in the art prior to conducting a diffusion assay. […]
Results from absorption experiments are typically plotted as cumulative amount absorbed against time. The steady state penetration rate, or flux, J (μg/cm^2/hr), is typically calculated by linear regression analysis from the linear regions of an absorption plot. […]

[7] = solubility of phenserine or its salt; format: physicochemical; details: propionic acid as co-solvent with isopropyl myristate and/or oleic acid
Procedure: To assay solubility, between 10-20 mg of phenserine is weighed into a 1 ml volumetric flask. An initial 1 ml volume of a chosen vehicle is added to the flask and the mixture agitated, for example, ultrasonically for at least 30 minutes.

[8] = tested on: brain extracellular ACh; assay: striatal in vivo microdialysis in conscious, freely-moving rats
Procedure: as §1

[9] = chemical stability of phenserine in vehicles; format: physicochemical
Procedure: The time-course profiles for phenserine penetration across human epidermis from the formulations of the invention are conducted. […] Therefore, breakdown and degradation products, for example, by hydrolysis and subsequent oxidation, are assayed in each vehicle. The vehicles of the invention, including propionic acid and/or oleic acid, are assayed for the chemical stability of a phenserine compound.

[10] = skin irritancy and skin penetration of mixture with oleic acid; details: 50:50 mixture with oleic acid
Excerpt: Ethyl oleate gives a better performance still and is optimal in combination with propionic acid.

CN1CC[C@]2(C)c3cc(OC(=O)Nc4ccccc4)ccc3N(C)C12 (stereo partly drawn) [POSIPHEN, (3aR)-1,3a,8-trimethyl-1,2,3,3a,8,8a-hexahydropyrrolo[2,3-b]indol-5-yl phenylcarbamate]
inhibition of cholinesterase activity [1]: does not inhibit cholinesterase activity | production of beta amyloid precursor protein [2]: reduces the production of beta amyloid precursor protein

CN1CC[C@@]2(C)c3cc(OC(=O)Nc4ccccc4)ccc3N(C)C12 (single isomer, unassigned) [phenserine]
signs of cholinergic over stimulation [3]: does not cause overt signs of cholinergic over stimulation | bioavailability ([4]; rat, plasma, po): 100% | half-life of AChE inhibition ([4]; rats, i.v. dosing): > 495 min | inhibition of AChE ([4]; rats, i.v. dosing): > 70% | inhibition of cholinesterase activity [1]: long-acting inhibitor of cholinesterase | Kp ([5]; rat, brain / plasma, iv): 10 | half-life ([5]; rat, brain, iv): 8.5 min | half-life ([5]; rat, plasma, iv): 12.6 min | time to peak drug level ([5]; rats, i.v. dosing): ≤ 5 min | transdermal flux rate ([6]; 25% in propionic acid/isopropyl myristate): sufficiently high transdermal flux rates | transdermal flux rate ([6]; 25% in propionic acid/oleic acid): sufficiently high transdermal flux rates | effect of co-solvent on solubility [7]: increase | rise in brain ACh levels [8]: > 3 fold | production of beta amyloid precursor protein [2]: reduction in β-APP production | effect of co-solvent on stability ([9]; propionic acid as co-solvent with isopropyl myristate and/or oleic acid): increase | chemical stability in vehicle ([9]; vehicles of the invention, such as propionic acid and/or oleic acid): chemically stable

CNC(=O)Oc1ccc2c(c1)[C@]1(C)CCN(C)[C@@H]1N2C [physostigmine]
penetration through the skin [10]: very efficient | skin irritancy [10]: non-irritant
